Source: PubChem BioAssay (NCI)
Values joined by “and” are separate entries in the source; they are usually repeats but may differ in a detail not shown here. Identical values can stand only once.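 96-well plates; 48 h exposure; 5 concentrations. Endpoints by linear interpolation between flanking doses. Not reached: highest tested concentration assigned. Here, GI50 denotes the concentration required for 50% inhibition of growth. TGI marks complete inhibition of growth.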

Columns and labels:
Assay in all cases: DTP human tumour cell line panel, 48 h
[1] = test system: 786-0 renal
[2] = test system: A498 renal
[3] = test system: A549 NSCLC
[4] = test system: ACHN renal
[5] = test system: BT-549 breast
[6] = test system: CAKI-1 renal
[7] = test system: CCRF-CEM leukemia
[8] = test system: COLO 205 colon
[9] = test system: DU-145 prostate
[10] = test system: EKVX NSCLC
[11] = test system: HCC-2998 colon
[12] = test system: HCT-116 colon
[13] = test system: HCT-15 colon
[14] = test system: HL-60(TB) leukemia
[15] = test system: HOP-62 NSCLC
[16] = test system: HOP-92 NSCLC
[17] = test system: HS 578T breast
[18] = test system: HT29 colon
[19] = test system: IGROV1 ovarian
[20] = test system: K-562 leukemia
[21] = test system: KM12 colon
[22] = test system: LOX IMVI melanoma
[23] = test system: M14 melanoma
[24] = test system: MALME-3M melanoma
[25] = test system: MCF7 breast
[26] = test system: MDA-MB-231 breast
[27] = test system: MDA-MB-435
[28] = test system: MDA-N
[29] = test system: MOLT-4 leukemia
[30] = test system: NCI-H226 lung
[31] = test system: NCI-H23 lung
[32] = test system: NCI-H460 lung
[33] = test system: NCI-H522 lung
[34] = test system: NCI/ADR-RES ovarian
[35] = test system: OVCAR-3 ovarian
[36] = test system: OVCAR-4 ovarian
[37] = test system: OVCAR-5 ovarian
[38] = test system: OVCAR-8 ovarian
[39] = test system: PC-3 prostate
[40] = test system: RPMI-8226 leukemia
[41] = test system: RXF 393 renal
[42] = test system: SF-268 CNS
[43] = test system: SF-295 CNS
[44] = test system: SF-539 CNS
[45] = test system: SK-MEL-2 melanoma
[46] = test system: SK-MEL-28 melanoma
[47] = test system: SK-MEL-5 melanoma
[48] = test system: SK-OV-3 ovarian
[49] = test system: SN12C renal
[50] = test system: SNB-19 CNS
[51] = test system: SNB-75 CNS
[52] = test system: SR leukemia
[53] = test system: SW-620 colon
[54] = test system: T-47D breast
[55] = test system: TK-10 renal
[56] = test system: U251 CNS
[57] = test system: UACC-257 melanoma
[58] = test system: UACC-62 melanoma
[59] = test system: UO-31 renal

## O=C(O)c1cc2cc(OCc3ccccc3)ccc2[nH]1
[1]
  TGI: > 100 µM
[2]
  GI50: 35.1 µM
  TGI: > 100 µM
[3]
  TGI: > 100 µM
[4]
  TGI: > 100 µM
[5]
  GI50: 59.1 µM
  TGI: > 100 µM
[6]
  GI50: > 84.2 µM
  TGI: > 100 µM
[7]
  TGI: > 100 µM
[8]
  TGI: > 100 µM
[9]
  TGI: > 100 µM
[10]
  TGI: > 100 µM
[11]
  TGI: > 100 µM
[12]
  TGI: > 100 µM
[13]
  TGI: > 100 µM
[14]
  TGI: > 100 µM
[15]
  TGI: > 100 µM
[16]
  GI50: 20.7 µM
  TGI: 92.4 µM and > 100 µM
[17]
  GI50: > 85 µM
  TGI: 77.4 µM and > 100 µM
[18]
  GI50: > 100 µM
  TGI: > 100 µM
[19]
  GI50: 52.4 µM
  TGI: > 100 µM
[20]
  TGI: > 100 µM
[21]
  TGI: > 100 µM
[22]
  TGI: > 100 µM
[23]
  TGI: > 100 µM
[24]
  GI50: 0.198 µM
  TGI: 0.762 µM and 1.56 µM
[25]
  GI50: > 100 µM
  TGI: > 100 µM
[26]
  TGI: > 100 µM
[27]
  TGI: > 100 µM
[28]
  TGI: > 100 µM
[29]
  TGI: > 100 µM
[30]
  GI50: > 100 µM
  TGI: 93.1 µM and > 100 µM
[31]
  TGI: > 100 µM
[32]
  TGI: > 100 µM
[33]
  TGI: > 100 µM
[34]
  TGI: > 100 µM
[35]
  TGI: > 100 µM
[36]
  GI50: > 100 µM
  TGI: > 100 µM
[37]
  TGI: > 100 µM
[38]
  TGI: > 100 µM
[39]
  TGI: > 100 µM
[40]
  TGI: > 100 µM
[41]
  TGI: > 100 µM
[42]
  TGI: > 100 µM
[43]
  TGI: > 100 µM
[44]
  TGI: > 100 µM
[45]
  GI50: > 100 µM
  TGI: > 100 µM
[46]
  GI50: 8.32 µM
  TGI: 61.7 µM and > 100 µM
[47]
  TGI: > 100 µM
[48]
  TGI: > 100 µM
[49]
  TGI: > 100 µM
[50]
  GI50: > 100 µM
  TGI: > 100 µM
[51]
  GI50: 34.2 µM
  TGI: > 100 µM
[52]
  TGI: > 100 µM
[53]
  TGI: > 100 µM
[54]
  TGI: > 100 µM
[55]
  TGI: > 100 µM
[56]
  TGI: > 100 µM
[57]
  GI50: > 74 µM
  TGI: > 100 µM
[58]
  TGI: > 100 µM
[59]
  GI50: 1.92 µM
  TGI: > 100 µM

## COc1cc(/C=C2\CCC(C)C3=C(c4cc(OC)c(OC)c(OC)c4)C(C#N)=C(N)OC32)cc(OC)c1OC (stereo not given)
[1]
  TGI: 8.83 µM
[2]
  TGI: > 53.4 µM
[3]
  TGI: > 100 µM
[4]
  TGI: > 65.6 µM
[5]
  TGI: > 100 µM
[6]
  TGI: > 65.2 µM
[7]
  TGI: 26.2 µM
[8]
  TGI: 5.48 µM
[9]
  TGI: > 100 µM
[10]
  TGI: 47.6 µM
[11]
  TGI: 32.5 µM
[12]
  TGI: 11.3 µM
[13]
  TGI: > 68.2 µM
[14]
  TGI: > 25 µM
[15]
  TGI: > 100 µM
[16]
  TGI: > 31.3 µM
[17]
  TGI: 14.6 µM
[18]
  TGI: 5.02 µM
[19]
  TGI: > 52.3 µM
[20]
  TGI: > 100 µM
[21]
  TGI: 36.8 µM
[22]
  TGI: 8.99 µM
[23]
  TGI: 6.92 µM
[24]
  TGI: 9.03 µM
[25]
  TGI: 7.4 µM
[26]
  TGI: 10.9 µM
[27]
  TGI: 21.6 µM
[28]
  TGI: 21.9 µM
[29]
  TGI: > 49 µM
[30]
  TGI: 6.96 µM
[31]
  TGI: > 100 µM
[32]
  TGI: > 100 µM
[33]
  TGI: 7.75 µM
[34]
  TGI: 99.2 µM
[35]
  TGI: > 60.1 µM
[36]
  TGI: > 59.6 µM
[37]
  TGI: > 64.6 µM
[38]
  TGI: > 73 µM
[39]
  TGI: 24.8 µM
[40]
  TGI: 6.08 µM
[41]
  TGI: 4.36 µM
[42]
  TGI: > 100 µM
[43]
  TGI: > 40.6 µM
[44]
  TGI: 4.98 µM
[45]
  TGI: 4.46 µM
[46]
  TGI: 13.9 µM
[47]
  TGI: 7.24 µM
[48]
  TGI: > 57.2 µM
[49]
  TGI: > 60.6 µM
[50]
  TGI: > 100 µM
[51]
  TGI: 9.24 µM
[52]
  TGI: > 37.8 µM
[53]
  TGI: > 100 µM
[54]
  TGI: 12.9 µM
[55]
  TGI: > 100 µM
[56]
  TGI: 25.7 µM
[57]
  TGI: > 65.4 µM
[58]
  TGI: 23.2 µM
[59]
  TGI: > 100 µM
